Experiments:
Na—K—Cl cotransport = Na—K—Cl cotransport measured by 86Rb uptake in Jurkat cells; type: cell-based; settings: 1 μm isoproterenol, p<0.001
Experimental: Jurkat cells were centrifuged for 15 min at 300×g and resuspended in Dulbecco's modified Eagle's medium (DMEM; ionic composition: 1.8 mM CaCl2, 5.4 mM KCl, 0.8 mM MgSO4, 110 mM NaCl, 0.9 mM NaH2PO4, 0.25 µM Fe(NO3)3; GIBCO, Grand Island, N.Y.) with 10 mM N-2 hydroxyethylpiperazine-N′-2 ethanesulfonic acid (HEPES), pH 7.4 at a final concentration of 5-10×10^6 cells/ml. […] Assays were stopped by aliquoting 100 μl of the reaction mixture into chilled microcentrifuge tubes prefilled with 100 μl of 3 mM BaCl2 and 0.1 mM of ouabain solution layered over 100 μl of a 3:1 of mazola oil to n-butylphthalate mixture. Cells were rapidly sedimented through the oil interface (1 min at 15,000 g). Centrifuge tube tips containing the tip pellets were clipped in the vials and radioactivity was determined by scintillation spectroscopy (Beckman LS 6000).

[1] = tested on: cAMP-dependent protein kinase (PKA); experiment: cAMP-dependent protein kinase (PKA) activity in digitonin-permeabilized Jurkat cells; type: cell-based; settings: 5× rat C18 purified Reptimed or 1 μm isoproterenol, basal activity 9 +/−1
Experimental: Cyclic AMP-dependent protein kinase (PKA) activity was assayed in digitonin-permeabilized cells. Jurkat cells were centrifuged at 300×g for 15 min and resuspended in Hanks' balanced salt solution without calcium and with 0.5 mM EDTA, 1 mM magnesium sulfate, and 1 mg/100 ml digitonin. Jurkat cells were incubated for 15 min at 4° C. and then washed twice as above in Hanks' solution without digitonin and finally resuspended at a final concentration of 10 to 20×10^6 cells/ml for assay. Cells were either untreated, treated with 5×rat C18 purified […], or with 1 μm isoproterenol, or with both 5[…] and 1 μm isoproterenol. PKA activity was assessed by the phosphorylation of the synthetic PKA substrate (Kemptide-Sigma Chemical Corporation, St. Louis, Mo.). Phosphorylated substrate was separated by adherence to phosphocellulose. After six washes in phosphoric acid, radioactivity on the phosphocellulose strips was assessed by scintillation spectroscopy.

CC(C)NCC(O)c1ccc(O)c(O)c1 (centres unmarked) [isoproterenol]
Na—K—Cl cotransport (86Rb uptake) (Na—K—Cl cotransport): 38 +/−8 % of control | PKA activity [1]: significant increase

Reference: US20010022976A1, “Immunosuppressive and tumour-suppressive bone marrow factor” (London Health Sciences Centre, priority 1995, published 2001)
